Data from patent publication US6441237B1, “Substituted 3-phenoxy- and 3-phenylalkyloxy-2-phenyl-propylamines” (Boehringer Ingelheim Pharma KG, priority 1999, dated 2002).

Compound | melting point [°C]
Cc1cccc(C)c1C(CNC1CCCC1)COCc1c(F)cccc1F.Cl (stereo not drawn) | 130
Cc1cccc(C)c1C(CNCC1CC1)COCc1c(F)cccc1Cl.Cl (stereo not drawn) | 154
CCCNCC(COCc1ccccc1F)c1c(C)cccc1C.Cl (stereo not drawn) | 100
Br.CCCN(CCC)CC(COCc1c(F)cccc1F)c1c(C)cccc1C (stereo not drawn) | 143
COCCNCC(COCc1ccccc1F)c1c(C)cccc1C.Cl (stereo not drawn) | 77
CCCNCC(COCc1c(F)cccc1F)c1c(C)cccc1C.Cl (stereo not drawn) | 142
Cc1cccc(C)c1C(CNCC1CCC1)COCc1ccccc1F.Cl (stereo not drawn) | 191
Cc1cccc(C)c1C(COCc1c(F)cccc1F)CN(C)C.Cl (stereo not drawn) | 144
C#CCNCC(COCc1ccccc1F)c1c(C)cccc1C.Cl (stereo not drawn) | 112
Br.Cc1cccc(C)c1C(CNC(C)C)COCc1ccccc1F (stereo not drawn) | 111
Cc1cccc(C)c1C(CNC(C)C)COCc1c(F)cccc1F.Cl (stereo not drawn) | 138
C=C(C)CN(C)CC(c1c(C)cccc1C)C(OC)c1c(F)cccc1F.O=C(O)C(=O)O (stereo not drawn) | 128
Cc1cccc(C)c1C(CNCC1CC1)COCc1ccccc1F.Cl (stereo not drawn) | 101
C=CCN(C)CC(c1c(C)cccc1C)C(OC)c1c(F)cccc1F.Cl (stereo not drawn) [11.55] | 116
Cc1cccc(C)c1C(CNC(C)C)COCc1ccccc1F.Cl (stereo not drawn) | 123
C#CCNCC(COCc1c(F)cccc1F)c1c(C)cccc1C.Cl (stereo not drawn) [8.12] | 145
Cc1cccc(C)c1C(CNCC1CC1)COCc1c(F)cccc1F.Cl (stereo not drawn) | 145
Br.Cc1cccc(C)c1C(CNCC1CCCO1)COCc1c(F)cccc1F (stereo not drawn) | 149
Br.Cc1cccc(C)c1C(CNCC1CC1)COCc1ccccc1F (stereo not drawn) | 101
Cc1cccc(C)c1COCC(CNCC1CC1)c1c(C)cccc1C.Cl (stereo not drawn) | 142
C#CCNCC(COCc1c(F)cccc1F)c1c(C)cccc1C.Cl (stereo not drawn) [8.9] | 124
COCCNCC(COCc1c(F)cccc1F)c1c(C)cccc1C.Cl (stereo not drawn) | 128
Cc1cccc(C)c1C(CNC1CCCC1)COCc1ccccc1F.Cl (stereo not drawn) | 102
Cc1cccc(C)c1C(CNCC(C)C)COCc1c(F)cccc1F.Cl (stereo not drawn) | 119
